The values that follow come from patent US20140088027A1, “PHARMACEUTICAL COMPOSITION COMPRISING AN SGLT2 INHIBITOR AND A PPAR- GAMMA AGONIST AND USES THEREOF” (BOEHRINGER INGELHEIM INTERNATIONAL GMBH, priority 2010, published 2014).

A short description of experiment [1]: Body weight in cafeteria-diet obese female Wistar rats. The experiment is classed as in vivo, rat. Particulars: obese female Wistar rats on cafeteria diet, 28 day treatment. Here is the method:
(§1) An animal model of obesity was used to study the effect of Cpd. A, Pioglitazone or the combination of Cpd. A with Pioglitazone on body weight and total body fat content. For this, female Wistar rats were made obese by exposure to a simplified cafeteria diet containing high fat chow, chocolate and ground peanuts for approximately 19 weeks. Following the induction of obesity, rats were given vehicle (0.5% aqueous hydroxyethylcellulose) for 7 days and were then dosed orally once-daily with either vehicle, 10 mg/kg Cpd. A, 10 mg/kg Pioglitazone, or the combination of Cpd. A and Pioglitazone for 29 days. For the duration of the study rats were maintained on cafeteria diet.
In FIG. 1, results are mean body weights (adjusted for differences between the body weights of the different treatment groups at baseline (Day 1))±SEM (calculated from the residuals of the statistical model), n=10) after 28 day once-daily oral treatment with the glucopyranosyl-substituted benzene derivative (Cpd. A), Pioglitazone or the combination of both Cpd. A and Pioglitazone at the indicated doses.
Body weight data were analyzed by unpaired t-test. […] Combination of Cpd.

In experiment [2] the test system is Zucker diabetic fatty rats (ZDF/Crl-Lepr^fa). The experiment in a line: Blood glucose time course in male Zucker diabetic fatty rats. The experiment is classed as in vivo, rat. Particulars: freely fed, 2 h after dosing, two weeks once daily po, Cpd. A 1 mg/kg, pioglitazone 10 mg/kg. From the text:
The SGLT2 inhibitor is the glucopyranosyl-substituted benzene derivative described as compound (I.9) hereinabove and referred to as “Cpd. A” in the following. The PPARγ agonist is pioglitazone. All experimental protocols concerning the use of laboratory animals were reviewed by a federal Ethics Committee and approved by governmental authorities. The time course of blood glucose was followed over a treatment period of 2 weeks in male Zucker diabetic fatty rats (ZDF/Crl-Lepr^fa) with an age of 10 weeks at the start of the study. A pre-dose blood sample was obtained by tail bleed (day 0) and blood glucose was measured with a glucometer. From day 1 to day 15, the animals (n=5/group) received once daily oral administrations of either vehicle alone (0.5% aqueous hydroxyethylcellulose) or this vehicle containing either Cpd. A or pioglitazone or the combination of the Cpd. A with pioglitazone. Blood glucose was measured in tail blood 2 h after dosing in freely fed animals. The data are presented as mean±S.E.M. Statistical comparison was conducted by repeated measures two-way ANOVA followed by Bonferroni post tests for group-wise comparisons. A p value <0.05 was considered to show a statistically significant difference.
Cpd. A is Cpd. A described as compound (I.9) hereinabove at a dose of 1 mg/kg. Pioglitazone was dosed at 10 mg/kg. Combination Cpd. […]

Experiment [3] in a line: Plasma insulin in cafeteria-diet obese female Wistar rats. The experiment is classed as in vivo, rat. To be noted: fed, 10 mg/kg po once daily each, after 28/29 days. Here is the method: as §1
After 28 days of treatment, blood samples were collected from the tail vein (from fed animals) for analysis of insulin. Plasma insulin values were determined by using a Millipore Luminex RENDO 85K kit.
In FIG. 2, results are mean plasma insulin levels±SEM after 29 days of once-daily oral treatment with the glucopyranosyl-substituted benzene derivative (Cpd. A), Pioglitazone or the combination of both Cpd. A and Pioglitazone at the indicated doses. Plasma insulin values were analyzed by unpaired t-test. P values versus vehicle control are indicated by symbols above the bars (*, p<0.05; **, p<0.01; ***, p<0.001). […] Combination of Cpd.

A short description of experiment [4]: Body composition (FoodScan NIR) in cafeteria-diet obese female Wistar rats. To be noted: 10 mg/kg po once daily, carcass analysis at Day 31. In kind it is in vivo, rat. Here is the method: as §1
At the end of the study on Day 31 (24 hours after the last treatment on Day 30) all rats were terminated, the body exsanguinated and the following tissues removed: the caudate liver lobe, the pancreas, the kidneys. Body composition (body fat, protein and water) was determined using the FoodScan NIR (near infra-red) meat analyser (Foss UK). This machine has AOAC (Association of Official Analytical Chemists) approval as reference method for the analysis of moisture, fat and protein in meat. The carcasses were milled under liquid nitrogen and a portion of the milled carcass was analysed in the FoodScan Analyser.
Results are the percentage reduction in each parameter when compared to control and presented along with the corresponding percentage reduction in carcass weight compared to the vehicle-treated control group. Body composition (body fat, protein and water) was determined using the FoodScan NIR (near infra-red) meat analyser (Foss UK).

The conditions of experiment [5]: metformin on its own, in the diabetic; cited from earlier work.

Regarding `OC[C@H]1O[C@@H](c2ccc(Cl)c(Cc3ccc(O[C@H]4CCOC4)cc3)c2)[C@H](O)[C@@H](O)[C@@H]1O` [Cpd. A], the “reduction of body weight compared to vehicle-treated control” value in experiment [1] (10 mg/kg po once daily) is 3.1%. Besides, in experiment [2], the “reduction of blood glucose” value was 37%. For the same compound, the “plasma insulin levels versus vehicle control” value in experiment [3] is on record as “reduced the plasma insulin levels significantly”. For the same compound, in experiment [4], the “Carcass weight (%), percentage reduction compared to vehicle-treated control” value is listed as −3.5%; the “Fat (%), percentage reduction compared to control” value is −4.5%; the “Protein (%), percentage reduction compared to control” value is −1.5%; the “Water (%), percentage reduction compared to control” value is on record as −0.3%.
Regarding `CCc1ccc(CCOc2ccc(CC3SC(=O)NC3=O)cc2)nc1` (centres unmarked) [Pioglitazone, pioglitazone], the “increase of body weight compared to vehicle-treated control animals” value in experiment [1] (10 mg/kg po once daily each) came out at 6.8%. For the same compound, the “reduction of blood glucose” value in experiment [2] was 48%. Further, in experiment [4], the “Carcass weight (%), percentage reduction compared to vehicle-treated control” value amounted to 6.2%; the “Fat (%), percentage reduction compared to control” value is 15.4%; the “Protein (%), percentage reduction compared to control” value is 1.1%; the “Water (%), percentage reduction compared to control” value is reported as 3.6%.
Consider `CN(C)C(=N)N=C(N)N` [metformin], for which, in experiment [5], the “average improvement in the HbA1c value” is given as 1.0-1.5%.
